Key:
[1] = system: AMPK; assay: AMPK activation potential, cell based ELISA with p-AMPK specific antibody, L6 muscle cells; details: 24 hours incubation, normalized to metformin at 2 mM as 100%
Procedure: (§1) AMPK activation potential percentages are obtained by normalizing the values obtained at the concentrations in the range of 2 nM-10 μM with that of metformin by considering the values obtained for metformin at 2 mM concentrations as 100%.
(§2) AMPK activation potential of the compounds of formula (I) was evaluated using a cell based ELISA approach. Skeletal muscle (L6 muscle) and hepatoma (Hep G2) liver cells were cultured for 48 hours prior to drug addition at various concentrations. Twenty four (24) hours later, the cells were fixed and the ELISA plate developed following standard protocol using p-AMPK specific antibody.
(§3) Various cell lines such as HepG2 and L6 were revived from glycerol stocks (ATCC). The cells were maintained in a T 75 culture flask-containing medium (DMEM+10% fetal calf serum). On reaching a confluence of 70 to 80%, the cells was seeded in a 96 well plate at a density of 10×10^3 cells per well in DMEM+10% FCS medium. The plates are then incubated at 37° C. with 5% CO2 for 48 hours. Various concentrations of drugs were prepared in DMSO and diluted to required concentration with the medium and incubated at 37° C. with 5% CO2 for 24 hours. Cells were fixed with 4% formaldehyde in PBS for 30 minutes at 25-35° C. and washed three times with PBS containing 0.1% Triton X-100. Endogenous peroxidase was quenched with 0.6% H2O2 in PBS-T for 30 minutes and washed three times in PBS-T. Then the cells were blocked with 10% FCS in PBS-T for 1 hour. The cells were incubated for 8-12 hours with various concentrations of primary antibody in PBS-T containing 5% BSA at 4° C. The cells were then washed three times with PBS-T for 5 minutes and incubated with secondary antibody (HRP conjugated 1:500 in PBS-T with 5% BSA for 1 hour at 25-35° C. The cells were washed three times with PBS-T for 5 minutes and twice with PBS. The cells were incubated with 100 μl TMB/H2O2 color developing solution for 15 minutes and the reaction was stopped with 50 μl of 1M H2SO4. Then the plate was read at 460 nm using ELISA plate reader.
(§4) (AMPK activation potential percentages are obtained by normalizing the values obtained at 10 μM concentration with that of metformin by considering the values obtained for metformin at 2 mM concentrations as 100%).

[2] = system: AMPK; assay: AMPK activation potential, cell based ELISA with p-AMPK specific antibody, Hep G2 cells; details: HepG-2 cells, 24 hours incubation, normalized to metformin at 2 mM as 100%
Procedure: as §1, §2, §3, §4

Compound: CCOC(=O)Cc1csc(Nc2ccc(Cl)c(C(F)(F)F)c2)n1 [Example 1, [2-(4-Chloro-3-trifluoromethyl-phenylamino)-thiazol-4-yl]-acetic acid ethyl ester]
- AMPK % activation (at 10 μM) L6 muscle cells [1]: 88.2%
- melting point: 150 to 152 °C
- AMPK % activation (at 10 μM) HepG-2 muscle cells [2]: 89%

Compound: CCOC(=O)Cc1csc(Nc2ccc(Br)c(C(F)(F)F)c2)n1 [Example 1-a, [2-(4-Bromo-3-trifluoromethyl-phenylamino)-thiazol-4-yl]-acetic acid ethyl ester]
- melting point: 161 to 164 °C

Compound: O=C(O)Cc1csc(Nc2ccc(Cl)c(C(F)(F)F)c2)n1 [Example 2, [2-(4-Chloro-3-trifluoromethyl-phenylamino)-thiazol-4-yl]-acetic acid]
- AMPK % activation (at 10 μM) L6 muscle cells [1]: 91.56%
- AMPK % activation (at 10 μM) HepG-2 muscle cells [2]: 102.69%

Compound: Cc1ccc(Nc2nc(CC(=O)O)cs2)cc1Cl [Example 2-b, [2-(3-Chloro-4-methyl-phenylamino)-thiazol-4-yl]-acetic acid]
- melting point: 142 to 144 °C

Compound: Cc1ccc(Nc2nc(CC(=O)O)cs2)cc1F [Example 2-e, [2-(3-Fluoro-4-methyl-phenylamino)-thiazol-4-yl]-acetic acid]
- melting point: 147 to 148 °C

Compound: O=C(O)Cc1csc(Nc2ccc(Br)c(F)c2)n1 [Example 2-g, [2-(4-Bromo-3-fluoro-phenylamino)-thiazol-4-yl]-acetic acid]
- melting point: 176 to 177 °C

Compound: O=C(O)Cc1csc(Nc2ccc(F)c(C(F)(F)F)c2)n1 [Example 2-h, [2-(4-Fluoro-3-trifluoromethyl-phenylamino)-thiazol-4-yl]-acetic acid]
- melting point: 167 to 169 °C

Compound: Cc1ccc(Nc2nc(CC(=O)O)cs2)cc1C(F)(F)F [Example 2-i, [2-(4-Methyl-3-trifluoromethyl-phenylamino)-thiazol-4-yl]-acetic acid]
- melting point: 154 to 155 °C

Compound: CC(C)(CC(=O)O)c1csc(Nc2ccc(Cl)c(C(F)(F)F)c2)n1 [Example 2-j, 3-[2-(4-Chloro-3-trifluoromethyl-phenylamino)-thiazol-4-yl]-3-methyl-butyricacid]
- melting point: 160 to 165 °C

Compound: O=C(O)Cc1csc(Nc2ccc(Br)c(C(F)(F)F)c2)n1 [Example 2a, [2-(4-Bromo-3-trifluoromethyl-phenylamino)-thiazol-4-yl]-acetic acid]
- AMPK % activation (at 10 μM) L6 muscle cells [1]: 83.4%
- AMPK % activation (at 10 μM) HepG-2 muscle cells [2]: 91.3%

Compound: CNC(=O)Cc1csc(Nc2ccc(Cl)c(C(F)(F)F)c2)n1 [Example 3, 2-[2-(4-Chloro-3-trifluoromethyl-phenylamino)-thiazol-4-yl]-N-methyl-acetamide]
- AMPK % activation (at 10 μM) L6 muscle cells [1]: 101.20%
- melting point: 148 to 150 °C
- AMPK % activation (at 10 μM) HepG-2 muscle cells [2]: 102.14%

Compound: NNC(=O)Cc1csc(Nc2ccc(Cl)c(C(F)(F)F)c2)n1 [Example 3-b, [2-(4-Chloro-3-trifluoromethyl-phenylamino)-thiazol-4-yl]-acetic acid hydrazide]
- melting point: 115 to 118 °C

Compound: NC(=O)Cc1csc(Nc2ccc(Cl)c(C(F)(F)F)c2)n1 [Example 3c, 2-[2-(4-Chloro-3-trifluoromethyl-phenylamino)-thiazol-4-yl]-acetamide]
- AMPK % activation (at 10 μM) L6 muscle cells [1]: 88.1%
- melting point: 205 to 207 °C
- AMPK % activation (at 10 μM) HepG-2 muscle cells [2]: 102.43%

Compound: O=C(Cc1csc(Nc2ccc(Cl)c(C(F)(F)F)c2)n1)Nc1ccc(Cl)c(C(F)(F)F)c1 [Example 4, N-(4-Chloro-3-trifluoromethyl-phenyl)-2-[2-(4-chloro-3-trifluoromethyl-phenylamino)-thiazol-4-yl]-acetamide]
- melting point: 108 to 112 °C

Compound: COc1ccc(NC(=O)Cc2csc(Nc3ccc(Cl)c(C(F)(F)F)c3)n2)cc1 [Example 4-a, 2-[2-(4-Chloro-3-trifluoromethyl-phenylamino)-thiazol-4-yl]-N-(4-methoxy-phenyl)-acetamide]
- melting point: 179 to 180 °C

Compound: CC(=O)c1ccc(NC(=O)Cc2csc(Nc3ccc(Cl)c(C(F)(F)F)c3)n2)cc1 [Example 4-b, N-(4-Acetyl-phenyl)-2-[2-(4-chloro-3-trifluoromethyl-phenylamino)-thiazol-4-yl]-acetamide]
- melting point: 194 to 195 °C

Compound: O=C(Cc1csc(Nc2ccc(Cl)c(C(F)(F)F)c2)n1)Nc1ccc(F)cc1 [Example 4-c, 2-[2-(4-Chloro-3-trifluoromethyl-phenylamino)-thiazol-4-yl]-N-(4-fluoro-phenyl)-acetamide]
- melting point: 146 to 148 °C

Compound: O=C(Cc1csc(Nc2ccc(Cl)c(C(F)(F)F)c2)n1)Nc1ccncc1 [Example 4-d, 2-[2-(4-Chloro-3-trifluoromethyl-phenylamino)-thiazol-4-yl]-N-pyridin-4-yl-acetamide]
- melting point: 178 to 180 °C

Compound: CSc1ccc(NC(=O)Cc2csc(Nc3ccc(Cl)c(C(F)(F)F)c3)n2)cc1 [Example 4-e, 2-[2-(4-Chloro-3-trifluoromethyl-phenylamino)-thiazol-4-yl]-N-(4-methylsulfanyl-phenyl)-acetamide]
- melting point: 151 to 152 °C

Compound: CC(=O)Nc1ccc(NC(=O)Cc2csc(Nc3ccc(Cl)c(C(F)(F)F)c3)n2)cc1 [Example 4-f, N-(4-Acetylamino-phenyl)-2-[2-(4-chloro-3-trifluoromethyl-phenylamino)-thiazol-4-yl]-acetamide]
- melting point: 262 to 263 °C

Compound: O=C(Cc1csc(Nc2ccc(Cl)c(C(F)(F)F)c2)n1)Nc1nccs1 [Example 4-g, 2-[2-(4-Chloro-3-trifluoromethyl-phenylamino)-thiazol-4-yl]-N-thiazol-2-yl-acetamide]
- melting point: 196 to 198 °C

Compound: O=C(Cc1csc(Nc2ccc(Cl)c(C(F)(F)F)c2)n1)Nc1cccnc1 [Example 4-h, 2-[2-(4-Chloro-3-trifluoromethyl-phenylamino)-thiazol-4-yl]-N-pyridin-3-yl-acetamide]
- melting point: 191 to 192 °C

Compound: O=C(Cc1csc(Nc2ccc(Cl)c(C(F)(F)F)c2)n1)N1CCOCC1 [Example 4-i, 2-[2-(4-Chloro-3-trifluoromethyl-phenylamino)-thiazol-4-yl]-1-morpholin-4-yl-ethanone]
- melting point: 210 to 211 °C

Compound: O=C(Cc1csc(Nc2ccc(Cl)c(C(F)(F)F)c2)n1)N1CCSCC1 [Example 4-j, 2-[2-(4-Chloro-3-trifluoromethyl-phenylamino)-thiazol-4-yl]-1-thiomorpholin-4-yl-ethanone]
- melting point: 185 to 187 °C

Compound: COc1ccc(CNC(=O)Cc2csc(Nc3ccc(Cl)c(C(F)(F)F)c3)n2)cc1 [Example 4-k, 2-[2-(4-Chloro-3-trifluoromethyl-phenylamino)-thiazol-4-yl]-N-(4-methoxy-benzyl)-acetamide]
- melting point: 65 to 70 °C

Compound: O=C(O)c1csc(Nc2ccc(Cl)c(C(F)(F)F)c2)n1 [Example 5, 2-(4-Chloro-3-trifluoromethyl-phenylamino)-thiazole-4-carboxylic acid]
- melting point: 254 to 256 °C

Reference: patent US20080221088A1, “3,4-Substituted Thiazoles as Ampk Activators” (priority 2005, published 2008)
